From patent US10532105B2, “Formulations for improving the efficacy of hydrophobic drugs” (Peptinovo Biopharma, LLC, priority 2015, dated 2020)
Non-standard residues stand in square brackets, D forms with d. No end group written: not given here. Aib = CC(C)(N)C(=O)O

test system: not listed separately; assay: Stability of peptide/phospholipid complexes by visual inspection; format: physicochemical; conditions: DOPC, SM; PC/SM 70/30; C16PTX/PL mole ratio 0
Method: Separate stock solutions of peptide and phospholipids were prepared in a solvent mixture composed of 80% tert-butyl alcohol (TBA) and 20% water to obtain separate solutions of 10 mM peptide, 20 mM 1,2-dioleoyl-sn-glycero-3-phosphocholine (DOPC) or 20 mM 1-palmitoyl-2-oleoyl-phosphatidylcholine (POPC) and 20 mM egg SM. Aliquots of stock solution were combined to obtain a final solution containing 10 mole equivalents of peptide, 42 mole equivalents of phosphatidylcholine and 18 mole equivalents of SM. The solutions were combined in a 1.5 ml glass vial, frozen (−70° C.), and lyophilized at −5 to −10° C. overnight. The resultant lyophilized cakes were rehydrated by addition of Dulbeco's phosphate buffered saline followed by gentle swirling of the contents. Formation of PALM was completed by incubating the PALM solution at 50° C. for 10 minutes. […] The qualities of the PALM preparations were evident in their appearance. A visually clear preparation indicated any nanoparticles that had formed were less than approximately 20 nm diameter.

Row | Substance | Stability by visual inspection (appearance)
1 | DVFQKL{AIB}ELFNQLLEKWKQV (DVFQKL[Aib]ELFNQLLEKWKQV) [SEQ ID NO: 25] | Clear
2 | DV{AIB}QKFLELFNQLLEKWKQV (DV[Aib]QKFLELFNQLLEKWKQV) [SEQ ID NO: 32] | Turbid
3 | DV{AIB}QKLFELFNQLLEKWKQV (DV[Aib]QKLFELFNQLLEKWKQV) [SEQ ID NO: 27] | Turbid

same assay, conditions: DOPC, SM; PC/SM 70/30; C16PTX/PL mole ratio 0.1

Row | Substance | Stability by visual inspection (appearance)
4 | DVFQKL{AIB}ELFNQLLEKWKQV (DVFQKL[Aib]ELFNQLLEKWKQV) [SEQ ID NO: 25] | Clear
5 | DV{AIB}QKFLELFNQLLEKWKQV (DV[Aib]QKFLELFNQLLEKWKQV) [SEQ ID NO: 32] | Turbid

same assay, conditions: POPC, SM; PC/SM 70/30; C16PTX/PL mole ratio 0

Row | Substance | Stability by visual inspection (appearance)
6 | DVFQKL{AIB}ELFNQLLEKWKQV (DVFQKL[Aib]ELFNQLLEKWKQV) [SEQ ID NO: 25] | Clear
7 | DVFQKLVELFNQLLEKWKQV [SEQ ID NO: 26] | Clear
8 | DV{AIB}QKFLELFNQLLEKWKQV (DV[Aib]QKFLELFNQLLEKWKQV) [SEQ ID NO: 32] | Clear
9 | DV{AIB}QKLFELFNQLLEKWKQV (DV[Aib]QKLFELFNQLLEKWKQV) [SEQ ID NO: 27] | Clear

same assay, conditions: POPC, SM; PC/SM 70/30; C16PTX/PL mole ratio 0.1

Row | Substance | Stability by visual inspection (appearance)
10 | DVFQKL{AIB}ELFNQLLEKWKQV (DVFQKL[Aib]ELFNQLLEKWKQV) [SEQ ID NO: 25] | Clear
11 | DVFQKLVELFNQLLEKWKQV [SEQ ID NO: 26] | Turbid
12 | DV{AIB}QKFLELFNQLLEKWKQV (DV[Aib]QKFLELFNQLLEKWKQV) [SEQ ID NO: 32] | Turbid
13 | DV{AIB}QKLFELFNQLLEKWKQV (DV[Aib]QKLFELFNQLLEKWKQV) [SEQ ID NO: 27] | Turbid

test system: BHK(SR-BI) cells; assay: DiI uptake from PALM or HDL by BHK(SR-BI) cells, SR-BI un-induced or induced; format: cell-based, hamster; conditions: DiI uptake, induced vs un-induced cells
Method: SR-BI interaction studies are done with BHK(SR-BI) cells obtained from the NIH. The cells were stably transfected with an inducible human SR-BI gene by means of the GeneSwitch™ System (Invitrogen). The cells were plated (96-well plate) (8000 cells/well) in growth medium (Dulbeco's modified Eagle medium containing 10% fetal bovine serum) containing 200 ug/ml each of zeocin and hygromycin. After 24 hours incubation, the growth medium was removed and replaced with 0.2% bovine serum albumin in Dulbeco's modified Eagle medium. The medium of cells to be induced for SR-BI expression also contained 10 nM mifepristone, added from a DMSO stock solution. DMSO alone was added to the medium of uninduced cells. The induction medium was removed after 24 hours and replaced with medium containing DiI-labeled PALM (32 μg peptide/ml) or DiI-labeled HDL (19 μg protein/ml) (Kalen Biomedical, Montgomery Village, Md.). The test media were prepared by diluting an aliquot of Di-I-labeled PALM (Example 5) or the DiI-labeled HDL in 0.2% bovine serum albumin in Dulbeco's modified Eagle medium. The solutions were passed through 0.2 μm pore size, polyethersulfone, sterilization filters before use. The cells were incubated for 4 hours. Next, the cells were washed 3 times with 0.1% albumin in Dulbeco's phosphate buffered saline (with calcium and magnesium). The last wash was replaced with 200 ul/well of t-butanol/water (95%/5%). The covered plate was left to stand at ROOM TEMPERATURE for 30 min with occasional shaking. The fluorescence in each well was detected at 520 nm excitation and 580 nm emission with a 550 nm cutoff filter on a Molecular Dynamics Gemini fluorescence plate reader (FIG. 9).

Row | Substance | Increase Over Un-induced
14 | DVFQ{AIB}LKELFNQLLEKWKQV (DVFQ[Aib]LKELFNQLLEKWKQV) [SEQ ID NO: 3] | 88%
15 | DVFQKL{AIB}ELFNQLLEKWKQV (DVFQKL[Aib]ELFNQLLEKWKQV) [SEQ ID NO: 25] | 245%
16 | DVFQKL{AIB}ELFNQL{AIB}EKWKQV (DVFQKL[Aib]ELFNQL[Aib]EKWKQV) [SEQ ID NO: 35] | 264%
17 | DVFQ{AIB}LKELLNQLLEKFKQV (DVFQ[Aib]LKELLNQLLEKFKQV) [SEQ ID NO: 5] | 73%
18 | DVFQKLVELFNQLLEKWKQV [SEQ ID NO: 26] | 65%
19 | DV{AIB}QKFLELFNQLLEKWKQV (DV[Aib]QKFLELFNQLLEKWKQV) [SEQ ID NO: 32] | 221%
20 | DV{AIB}QKLFELFNQLLEKWKQV (DV[Aib]QKLFELFNQLLEKWKQV) [SEQ ID NO: 27] | 90%

same assay, conditions: SR-BI induced (10 nM mifepristone) BHK(SR-BI) cells, 4 hours; mean ± SEM, n = 4

Row | Substance | Induced DiI Uptake
21 | DVFQ{AIB}LKELFNQLLEKWKQV (DVFQ[Aib]LKELFNQLLEKWKQV) [SEQ ID NO: 3] | 0.29 ± 0.03 pmol/µg/mL
22 | DVFQKL{AIB}ELFNQLLEKWKQV (DVFQKL[Aib]ELFNQLLEKWKQV) [SEQ ID NO: 25] | 0.83 ± 0.02 pmol/µg/mL
23 | DVFQKL{AIB}ELFNQL{AIB}EKWKQV (DVFQKL[Aib]ELFNQL[Aib]EKWKQV) [SEQ ID NO: 35] | 1.26 ± 0.06 pmol/µg/mL
24 | DVFQ{AIB}LKELLNQLLEKFKQV (DVFQ[Aib]LKELLNQLLEKFKQV) [SEQ ID NO: 5] | 0.93 ± 0.03 pmol/µg/mL
25 | DVFQKLVELFNQLLEKWKQV [SEQ ID NO: 26] | 0.81 ± 0.04 pmol/µg/mL
26 | DV{AIB}QKFLELFNQLLEKWKQV (DV[Aib]QKFLELFNQLLEKWKQV) [SEQ ID NO: 32] | 0.90 ± 0.03 pmol/µg/mL
27 | DV{AIB}QKLFELFNQLLEKWKQV (DV[Aib]QKLFELFNQLLEKWKQV) [SEQ ID NO: 27] | 0.66 ± 0.02 pmol/µg/mL

same assay, conditions: un-induced BHK(SR-BI) cells, 4 hours; relative to protein (HDL) or peptide (PALM) concentration; mean ± SEM, n = 4

Row | Substance | Un-induced DiI Uptake
28 | DVFQ{AIB}LKELFNQLLEKWKQV (DVFQ[Aib]LKELFNQLLEKWKQV) [SEQ ID NO: 3] | 0.16 ± 0.01 pmol/µg/mL
29 | DVFQKL{AIB}ELFNQLLEKWKQV (DVFQKL[Aib]ELFNQLLEKWKQV) [SEQ ID NO: 25] | 0.24 ± 0.01 pmol/µg/mL
30 | DVFQKL{AIB}ELFNQL{AIB}EKWKQV (DVFQKL[Aib]ELFNQL[Aib]EKWKQV) [SEQ ID NO: 35] | 0.35 ± 0.01 pmol/µg/mL
31 | DVFQ{AIB}LKELLNQLLEKFKQV (DVFQ[Aib]LKELLNQLLEKFKQV) [SEQ ID NO: 5] | 0.54 ± 0.03 pmol/µg/mL
32 | DVFQKLVELFNQLLEKWKQV [SEQ ID NO: 26] | 0.49 ± 0.04 pmol/µg/mL
33 | DV{AIB}QKFLELFNQLLEKWKQV (DV[Aib]QKFLELFNQLLEKWKQV) [SEQ ID NO: 32] | 0.28 ± 0.02 pmol/µg/mL
34 | DV{AIB}QKLFELFNQLLEKWKQV (DV[Aib]QKLFELFNQLLEKWKQV) [SEQ ID NO: 27] | 0.34 ± 0.01 pmol/µg/mL
